The text below walks through data of article PMC5483587 (Frontiers in Microbiology, 2017).

Each structure is given as a SMILES string.

The Km is the substrate concentration at which the rate is half of its maximum.

For this assay, the system named is T1, LkAlt1.
T1 construct: ORF amplified from genomic DNA into pET-28a(+) (NheI/XhoI), His-tagged, E. coli Rosetta2(DE3), Ni-NTA; tag removal not mentioned; about 50 kDa on SDS-PAGE
Description: initial velocities at […] nm (lactate dehydrogenase/NADH coupled), global ping-pong fit. Type of assay: biochemical, Lachancea kluyveri. The settings on record: alanine varied 1-20 mM, α-ketoglutarate 0.05-1.50 mM; Tris-HCl about pH 7, 25°C; pyridoxal 5'-phosphate; ka/kb assigned to substrates by concentration ranges and text.

Regarding `C[C@H](N)C(=O)O` [alanine], the “ka” value turned out to be 4.88 mM.
On to `O=C(O)CCC(=O)C(=O)O` [α-ketoglutarate], for which the Km worked out at 220 µM.
